Assay results: the supplement of paper PMC10307832

Experiments:
Test in all cases: relative viability (nuclei count vs DMSO), 5 days (fraction); higher = more cells survive
[1] = compound: O=C(/C=C/c1ccccc1)NC(NC(=S)Nc1cccc2cccnc12)C(Cl)(Cl)Cl [Salubrinal] + O=C(c1cc(Cc2n[nH]c(=O)c3ccccc23)ccc1F)N1CCN(C(=O)C2CC2)CC1 [Olaparib] (partner 8 µM)
In short: (§1)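 After 5 days of treatment, lung cancer cells in 1536-well plates were fixed and stained in a single step (final 0.05% Triton X-100, 1% formaldehyde, 1 ug/ml Hoechst) and their nuclei counted on 4× images. Treatment had been applied by pin tool the day after seeding as one drug alone or as a fixed anchor-drug dose with five library-drug doses (not always all listed) in √10 steps. Relative viability is the nuclei count of treated wells divided by that of vehicle wells, and values are medians of duplicate plates.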

[2] = compound: Cc1ccc2nc(NCCN)c3ncc(C)n3c2c1 + O=C(CCCCCCC(=O)Nc1ccccc1)NO [Vorinostat] (partner 1 µM)
In short: as §1

[3] = compound: O=C(/C=C/c1ccccc1)NC(NC(=S)Nc1cccc2cccnc12)C(Cl)(Cl)Cl [Salubrinal] + CCNC(=O)c1noc(-c2cc(C(C)C)c(O)cc2O)c1-c1ccc(CN2CCOCC2)cc1 [Luminespib] (partner 0.01 µM)
In short: as §1

[4] = compound: O=C(/C=C/c1ccccc1)NC(NC(=S)Nc1cccc2cccnc12)C(Cl)(Cl)Cl [Salubrinal] + Cc1cc(Nc2cc(N3CCN(C)CC3)nc(Sc3ccc(NC(=O)C4CC4)cc3)n2)n[nH]1 [Tozasertib] (partner 0.1 µM)
In short: as §1

Cell Line | relative viability ([1]; first compound 0.08 µM) | relative viability ([1]; first compound 0.253 µM) | relative viability ([1]; first compound 0.8 µM) | relative viability ([1]; first compound 2.53 µM) | relative viability ([1]; first compound 8 µM) | relative viability ([2]; first compound 0.04 µM) | relative viability ([2]; first compound 0.1265 µM) | relative viability ([2]; first compound 0.4 µM) | relative viability ([2]; first compound 1.265 µM) | relative viability ([2]; first compound 4 µM) | relative viability ([3]; first compound 0.08 µM) | relative viability ([3]; first compound 0.253 µM) | relative viability ([3]; first compound 0.8 µM) | relative viability ([3]; first compound 2.53 µM) | relative viability ([3]; first compound 8 µM) | relative viability ([4]; first compound 0.08 µM) | relative viability ([4]; first compound 0.253 µM) | relative viability ([4]; first compound 0.8 µM) | relative viability ([4]; first compound 2.53 µM) | relative viability ([4]; first compound 8 µM)
NCI-H522 | 0.565 | 0.648 | 0.701 | 0.686 | 0.637 | 0.825 | 0.971 | 0.677 | 0.92 | 1.09 | 1.13 | 0.97 | 1.13 | 1.12 | 1.11 | 0.566 | 0.588 | 0.524 | 0.589 | 0.569
HCC-15 | 0.766 | 0.711 | 0.784 | 0.702 | 0.68 | 0.852 | 0.873 | 0.78 | 0.78 | 0.744 | 0.363 | 0.294 | 0.245 | 0.468 | 0.206 | 0.481 | 0.332 | 0.41 | 0.438 | 0.257
A-427 | 0.751 | 0.7 | 0.793 | 0.682 | 0.744 | 0.9 | 0.844 | 0.852 | 0.876 | 0.89 | 1.04 | 0.696 | 1.07 | 0.8 | 1.2 | 0.22 | 0.226 | 0.227 | 0.227 | 0.21
NCI-H2228 | 0.691 |  | 0.969 | 0.555 | 0.385 | 0.639 | 0.589 | 0.858 | 0.595 | 0.544 | 0.105 | 0.0961 | 0.154 | 0.108 | 0.174 | 0.268 | 0.304 | 0.283 | 0.222 | 0.197
NCI-H1734 | 0.699 | 0.6 | 0.651 | 0.583 | 0.637 | 0.816 | 0.824 | 0.637 | 0.733 | 0.77 | 0.174 | 0.175 | 0.199 | 0.17 | 0.241 | 0.304 | 0.256 | 0.294 | 0.274 | 0.268
PC-14 | 0.278 | 0.258 | 0.259 | 0.246 | 0.25 | 0.766 | 0.693 | 0.763 | 0.718 | 0.567 | 0.23 | 0.118 | 0.134 | 0.151 | 0.126 | 0.629 | 0.663 | 0.638 | 0.525 | 0.601
NCI-H1915 | 0.256 |  | 0.257 | 0.28 | 0.273 | 0.515 | 0.506 | 0.422 | 0.555 | 0.454 | 0.918 | 0.559 | 1.26 | 0.71 | 0.752 | 0.484 | 0.291 | 0.337 | 0.387 | 0.432
NCI-H1666 | 0.713 | 0.605 | 0.713 | 0.711 | 0.732 | 1.06 | 1.05 | 0.925 | 0.944 | 1.05 | 0.984 | 0.903 | 0.95 | 0.945 | 1.1 | 0.646 | 0.587 | 0.611 | 0.553 | 0.608
HCC-366 | 0.459 |  | 0.401 | 0.341 | 0.357 | 0.421 | 0.359 | 0.244 | 0.361 | 0.296 |  |  |  |  |  | 0.106 | 0.0941 | 0.118 | 0.0829 | 0.0635
NCI-H2170 | 0.65 | 0.632 | 0.668 | 0.641 | 0.636 | 1.01 | 1.01 | 0.786 | 0.702 | 0.833 | 0.854 | 0.686 | 0.642 | 0.643 | 0.714 | 1.02 | 0.778 | 0.783 | 0.77 | 0.665
Calu-6 | 0.632 | 0.522 | 0.723 | 0.591 | 0.453 |  |  |  |  |  |  |  |  |  |  |  |  |  |  | 
NCI-H1299 | 0.98 | 0.947 | 0.993 | 0.951 | 0.936 |  |  |  |  |  |  |  |  |  |  |  |  |  |  | 
EBC-1 | 0.787 | 0.616 | 0.73 | 0.604 | 0.585 |  |  |  |  |  |  |  |  |  |  |  |  |  |  | 
NCI-H1792 | 0.531 |  | 0.583 | 0.287 | 0.408 |  |  |  |  |  | 0.574 |  | 0.472 | 0.624 | 0.587 |  |  |  |  | 
NCI-H1648 | 0.751 | 1.03 | 0.476 | 1.02 | 0.594 | 0.337 | 0.458 | 0.362 | 0.4 | 0.317 |  |  |  |  |  | 0.466 | 0.586 | 0.334 | 0.501 | 0.247
NCI-H1623 |  |  |  |  |  |  |  |  |  |  | 0.465 | 0.648 | 0.541 | 0.435 | 0.441 | 0.431 | 0.434 | 0.445 | 0.396 | 0.412
A549 | 0.226 | 0.344 | 0.438 | 0.31 | 0.287 |  |  |  |  |  |  |  |  |  |  |  |  |  |  | 
NCI-H1563 |  |  |  |  |  |  |  |  |  |  | 0.572 | 0.501 | 0.521 | 0.488 | 0.506 |  |  |  |  | 
HCC-78 | 1 | 0.964 | 1 | 0.788 | 0.9 | 0.502 | 0.426 | 0.402 | 0.383 | 0.436 |  |  |  |  |  | 0.372 | 0.343 | 0.345 | 0.351 | 0.314
IA-LM | 0.842 | 0.83 | 0.935 | 0.704 | 0.72 | 0.92 | 0.917 |  | 1.06 | 0.981 |  |  |  |  |  |  |  |  |  | 
NCI-H1703 | 0.414 | 0.721 | 0.416 | 0.486 | 0.385 |  |  |  |  |  |  |  |  |  |  |  |  |  |  | 
